According to patent publication US20240116985A1, “STAPLED PEPTIDES AND METHODS THEREOF” (priority 2020, published 2024):
pIC50: −log10 of the molar value. ≈ marks a conversion by molar mass, not a printed value. Like-named read-outs stand apart in the source and are kept apart here.

What was measured:
[1] = Solubility in PBS; format: physicochemical
In short: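 PBS sample ultracentrifuged; supernatant run on HPLC vs. 50 μM peptide in DMSO standard. Solubility = (PBS peak area / DMSO peak area) × 50 uM.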

[2] = molecular target: T1, full-length beta-Catenin (Uniprot ID P35222) (Homo sapiens, UniProt P35222); test: Fluorescence polarization IC50 (beta-catenin / 5FAM-TCF4 10-53 competition); format: binding
T1 construct: 10 nM full-length beta-Catenin (Uniprot ID P35222)
T1 sequence (P35222 1-781): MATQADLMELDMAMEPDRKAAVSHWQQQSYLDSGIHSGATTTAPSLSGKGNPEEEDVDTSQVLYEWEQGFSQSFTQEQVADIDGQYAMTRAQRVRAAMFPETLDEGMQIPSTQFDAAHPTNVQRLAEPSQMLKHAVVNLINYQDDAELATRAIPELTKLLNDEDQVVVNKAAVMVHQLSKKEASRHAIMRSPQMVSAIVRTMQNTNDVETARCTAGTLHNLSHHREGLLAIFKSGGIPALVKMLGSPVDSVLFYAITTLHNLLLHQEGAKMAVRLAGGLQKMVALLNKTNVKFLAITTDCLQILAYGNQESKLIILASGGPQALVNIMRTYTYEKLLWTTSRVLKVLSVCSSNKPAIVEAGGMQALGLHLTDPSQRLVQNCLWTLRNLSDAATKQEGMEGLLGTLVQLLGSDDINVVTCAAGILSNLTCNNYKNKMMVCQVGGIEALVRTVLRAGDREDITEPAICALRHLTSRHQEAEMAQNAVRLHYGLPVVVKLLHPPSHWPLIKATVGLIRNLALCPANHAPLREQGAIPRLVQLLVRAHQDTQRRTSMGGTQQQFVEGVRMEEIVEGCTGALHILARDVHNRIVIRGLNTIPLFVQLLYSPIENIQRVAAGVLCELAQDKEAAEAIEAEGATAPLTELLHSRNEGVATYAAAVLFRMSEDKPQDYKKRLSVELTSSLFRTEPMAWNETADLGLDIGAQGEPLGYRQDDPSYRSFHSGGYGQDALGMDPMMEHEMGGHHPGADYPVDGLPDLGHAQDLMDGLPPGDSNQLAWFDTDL

[3] = CHI Log D procedure; format: physicochemical; settings: for chromatographic logD: pH 7.4, CHI Log D; for CHI Log D: pH 7.4
[4] = fluorescence polarization, read-out: beta-Catenin FP IC50
[5] = fluorescence polarization, beta-catenin, read-out: FP EC50

CC(=O)N1CCC[C@]12CC=CCCCC1(CCCC=CCCCCCC[C@@](C)(C(=O)N[C@@H](Cc3ccccc3Br)C(=O)N[C@@H](Cc3csc4ccccc34)C(=O)N[C@@H](CCC(N)=O)C(N)=O)NC(=O)[C@H](CC(N)=O)NC(=O)[C@H](Cc3ccccc3)NC(=O)[C@H](C)NC(=O)[C@H](C)NC(=O)[C@H](CCC(=O)O)NC(=O)[C@H](CC(=O)O)NC1=O)NC(=O)[C@H](C)NC(=O)[C@H](CC(=O)O)NC2=O (stereo partly drawn) [I-436, Ac-PL3-Asp-Ala-B5-Asp-Glu-Ala-Ala-Phe-Asn-S8-2BrF-BztA-Gln-NH2]
Solubility [1]: 50 µM (≈ 95.3 µg/mL)
pIC50 [2, 4]: 7.25
chromatographic logD [3]: 2.16

CC[C@H](C)[C@@H]1NC(=O)[C@H](CC(=O)O)NC(=O)[C@]2(CC=CCCCC3(CCCC=CCCCCCC[C@@](C)(C(=O)N[C@@H](Cc4ccccc4)C(=O)N[C@@H](Cc4csc5ccccc45)C(=O)N[C@@H](Cc4c[nH]c5ccccc45)C(N)=O)NC(=O)[C@H](CCC(N)=O)NC(=O)[C@H](Cc4ccccc4)NC(=O)[C@H](C)NC(=O)[C@H](C)NC(=O)[C@H](CCC(=O)O)NC(=O)[C@H](CC(=O)O)NC3=O)NC1=O)CCCN2C(C)=O (stereo partly drawn) [I-643, Ac-PL3-Asp-Ile-B5-Asp-Glu-Ala-Ala-Phe-Gln-S8-Phe-BztA-Trp-NH2]
Solubility [1]: 28 µM (≈ 54.4 µg/mL)
pIC50 [2, 4]: 6.02
pIC50 ([2]; read-out: FP EC50): 6.02
CHI Log D [3]: 2.833

COCCOCCOCCOCCOCCOCCOCCOCCC(=O)NCCCC[C@H](NC(=O)[C@H](CCC(N)=O)NC(=O)[C@H](Cc1csc2ccccc12)NC(=O)[C@H](Cc1ccsc1)NC(=O)[C@]12CCN(C1)C(=O)OCCCC=CCCCC1(CCCC=CC[C@]3(CCCN3C(C)=O)C(=O)N[C@@H](CC(=O)O)C(=O)N[C@@H](CC(C)(C)C)C(=O)N1)C(=O)N[C@@H](CC(=O)O)C(=O)N[C@@H](CC(=O)O)C(=O)N[C@@H](C)C(=O)N[C@@H](C)C(=O)N[C@@H](Cc1ccccc1)C(=O)N[C@@H](CC(N)=O)C(=O)N2)C(N)=O (stereo partly drawn) [I-914, Ac-PL3-Asp-Npg-B5-Asp-Asp-Ala-Ala-Phe-Asn-PyrS2-3Thi-BztA-Gln-[mPEG8]Lys-NH2]
Solubility ([1]; Solubility (uM)): 46 µM (≈ 112 µg/mL)
pIC50 ([2]; read-out: beta-Catenin FP IC50): 7.80
chromatographic logD [3]: 1.82

CC[C@H](C)[C@@H]1NC(=O)[C@H](CC(=O)O)NC(=O)[C@]2(CC=CCCCC3(CCCC=CCCCCCC[C@@](C)(C(=O)N[C@@H](Cc4ccccc4)C(=O)N[C@@H](Cc4csc5ccccc45)C(=O)N[C@@H](Cc4c[nH]cn4)C(N)=O)NC(=O)[C@H](CCC(N)=O)NC(=O)[C@H](Cc4ccccc4)NC(=O)[C@H](C)NC(=O)[C@H](C)NC(=O)[C@H](CC(=O)O)NC(=O)[C@H](CC(=O)O)NC3=O)NC1=O)CCCN2C(C)=O (stereo partly drawn) [I-580, Ac-PL3-Asp-Ile-B5-Asp-Asp-Ala-Ala-Phe-Gln-S8-Phe-BztA-His-NH2]
Solubility [1]: 24 µM (≈ 45.1 µg/mL)
pIC50 [2, 4]: 6.94
pIC50 ([2]; read-out: FP EC50): 6.94
CHI Log D [3]: 2.436

CC[C@H](C)[C@@H]1NC(=O)[C@H](CC(=O)O)NC(=O)[C@]2(CC=CCCCC3(CCCC=CCCCCCC[C@@](C)(C(=O)N[C@@H](Cc4ccccc4)C(=O)N[C@@H](Cc4csc5ccccc45)C(=O)N[C@@H](CCC(N)=O)C(N)=O)NC(=O)[C@H](CCC(N)=O)NC(=O)[C@H](Cc4ccccc4)NC(=O)[C@H](C)NC(=O)[C@H](CCC(N)=O)NC(=O)[C@H](CCC(=O)O)NC(=O)[C@H](CC(=O)O)NC3=O)NC1=O)CCCN2C(C)=O (stereo partly drawn) [I-653, Ac-PL3-Asp-Ile-B5-Asp-Glu-Gln-Ala-Phe-Gln-S8-Phe-BztA-Gln-NH2]
Solubility [1]: 39 µM (≈ 75.7 µg/mL)
pIC50 [2, 4]: 6.97
pIC50 ([2]; read-out: FP EC50): 6.97
CHI Log D [3]: 2.07

CC[C@H](C)[C@@H]1NC(=O)[C@H](CC(=O)O)NC(=O)[C@]2(CC=CCCCC3(CCCC=CCCCCCC[C@@](C)(C(=O)N[C@@H](Cc4ccccc4)C(=O)N[C@@H](Cc4csc5ccccc45)C(=O)N[C@@H](Cc4ccccc4)C(N)=O)NC(=O)[C@H](CCC(N)=O)NC(=O)[C@H](Cc4ccccc4)NC(=O)[C@H](C)NC(=O)[C@H](C)NC(=O)[C@H](CCC(=O)O)NC(=O)[C@H](CC(=O)O)NC3=O)NC1=O)CCCN2C(C)=O (stereo partly drawn) [I-635, Ac-PL3-Asp-Ile-B5-Asp-Glu-Ala-Ala-Phe-Gln-S8-Phe-BztA-Phe-NH2]
Solubility ([1]; Solubility (uM)): 43 µM (≈ 81.8 µg/mL)
pIC50 [2, 4]: 6.77
chromatographic logD [3]: 2.73

CC[C@H](C)[C@@H]1NC(=O)[C@H](CC(=O)O)NC(=O)[C@]2(CC=CCCCC3(CCCC=CCCCCCC[C@@](C)(C(=O)N[C@@H](Cc4ccccc4)C(=O)N[C@@H](Cc4csc5ccccc45)C(=O)N[C@@H](CCC(N)=O)C(N)=O)NC(=O)[C@H](CC(N)=O)NC(=O)[C@H](Cc4ccccc4)NC(=O)[C@H](C)NC(=O)[C@H](C)NC(=O)[C@H](CC(=O)O)NC(=O)[C@H](CC(=O)O)NC3=O)NC1=O)CCCN2C(C)=O (stereo partly drawn) [I-468, Ac-PL3-Asp-Ile-B5-Asp-Asp-Ala-Ala-Phe-Asn-S8-Phe-BztA-Gln-NH2]
Solubility [1]: 41 µM (≈ 76.1 µg/mL)
pIC50 [2, 4]: 7.57
pIC50 ([2]; read-out: FP EC50): 7.57
CHI Log D [3]: 2.292

CC(=O)N1CCC[C@]12CC=CCCCC1(CCCC=CCCCOC(=O)N3CC[C@@](C(=O)N[C@@H](Cc4ccsc4)C(=O)N[C@@H](Cc4c[nH]c5ccc(Cl)cc45)C(=O)N[C@@H](Cc4c[nH]cn4)C(N)=O)(C3)NC(=O)[C@H](CC(N)=O)NC(=O)[C@H](Cc3ccccc3)NC(=O)[C@H](C)NC(=O)[C@H](C)NC(=O)[C@H](CC(=O)O)NC(=O)[C@H](CC(=O)O)NC1=O)NC(=O)[C@H](CC(C)(C)C)NC(=O)[C@H](CC(=O)O)NC2=O (stereo partly drawn) [I-791, Ac-PL3-Asp-Npg-B5-Asp-Asp-Ala-Ala-Phe-Asn-PyrS2-3Thi-5C1W-His-NH2]
Solubility ([1]; Solubility (uM)): 48 µM (≈ 93.3 µg/mL)
pIC50 ([2]; read-out: beta-Catenin FP IC50): 6.51
chromatographic logD [3]: 2.05

CC(=O)N1CCC[C@]12CC=CCCCC1(CCCC=CCCCOC(=O)N3CC[C@@](C(=O)N[C@@H](Cc4ccsc4)C(=O)N[C@@H](Cc4csc5ccccc45)C(=O)N[C@@H](CCC(N)=O)C(N)=O)(C3)NC(=O)[C@H](CC(N)=O)NC(=O)[C@H](Cc3ccccc3)NC(=O)[C@H](C)NC(=O)[C@H](C)NC(=O)[C@H](Cc3cccc(C(=O)O)c3)NC(=O)[C@H](CC(=O)O)NC1=O)NC(=O)[C@H](CC(C)(C)C)NC(=O)[C@H](CC(=O)O)NC2=O (stereo partly drawn) [I-976, Ac-PL3-Asp-Npg-B5-Asp-3COOHF-Ala-Ala-Phe-Asn-PyrS2-3Thi-BztA-Gln-NH2]
Solubility [1]: 50 µM (≈ 99.7 µg/mL)
pIC50 [2, 5]: 6.40
pIC50 ([2]; read-out: beta-Catenin FP IC50): 6.40
CHI Log D [3]: 1.78

CC[C@H](C)[C@@H]1NC(=O)[C@H](C)NC(=O)[C@H](CN(CC(=O)O)CC(F)(F)F)NC(=O)[C@H](CC(=O)O)NC(=O)C2(CCCC=CCCCOC(=O)N3CC[C@@](C(=O)N[C@@H](Cc4ccccc4Cl)C(=O)N[C@@H](Cc4csc5ccccc45)C(=O)N[C@@H](CCC(N)=O)C(N)=O)(C3)NC(=O)[C@H](CC(N)=O)NC(=O)[C@H](Cc3ccccc3)NC1=O)CCCC=CC[C@]1(CCCN1C(C)=O)C(=O)N[C@@H](CC(=O)O)C(=O)N[C@@H](CC(C)(C)C)C(=O)N2 (stereo partly drawn) [I-1005, Ac-PL3-Asp-Npg-B5-Asp-TfeGA-Ala-Ile-Phe-Asn-PyrS2-2C1F-BztA-Gln-NH2]
Solubility [1]: 10 µM (≈ 21 µg/mL)
pIC50 ([2]; read-out: beta-Catenin FP IC50): 7.38
chromatographic logD [3]: 2.64

CC[C@H](C)[C@@H]1NC(=O)[C@H](CC(=O)O)NC(=O)[C@]2(CC=CCCCC3(CCCC=CCCCCCC[C@@](C)(C(=O)N[C@@H](Cc4ccccc4)C(=O)N[C@@H](Cc4csc5ccccc45)C(=O)N[C@@H](CCC(N)=O)C(N)=O)NC(=O)[C@H](CCC(N)=O)NC(=O)[C@H](Cc4ccccc4)NC(=O)[C@H](C)NC(=O)[C@H](CC(C)C)NC(=O)[C@H](CCC(=O)O)NC(=O)[C@H](CC(=O)O)NC3=O)NC1=O)CCCN2C(C)=O (stereo partly drawn) [I-648, Ac-PL3-Asp-Ile-B5-Asp-Glu-Leu-Ala-Phe-Gln-S8-Phe-BztA-Gln-NH2]
Solubility [1]: 46 µM (≈ 88.6 µg/mL)
pIC50 [2, 4]: 6.63
pIC50 ([2]; read-out: FP EC50): 6.63
CHI Log D [3]: 2.721

CCN(CC(=O)O)C[C@@H]1NC(=O)[C@H](CC(=O)O)NC(=O)C2(CCCC=CCCCOC(=O)N3CC[C@@](C(=O)N[C@@H](Cc4ccsc4)C(=O)N[C@@H](Cc4csc5ccccc45)C(=O)N[C@@H](CCC(N)=O)C(N)=O)(C3)NC(=O)[C@H](CC(N)=O)NC(=O)[C@H](Cc3ccccc3)NC(=O)[C@H](C)NC(=O)[C@H](C)NC1=O)CCCC=CC[C@]1(CCCN1C(C)=O)C(=O)N[C@@H](CC(=O)O)C(=O)N[C@@H](CC(C)(C)C)C(=O)N2 (stereo partly drawn) [I-965, Ac-PL3-Asp-Npg-B5-Asp-EtGA-Ala-Ala-Phe-Asn-PyrS2-3Thi-BztA-Gln-NH2]
Solubility [1]: 45 µM (≈ 88.9 µg/mL)
pIC50 [2, 5]: 5.75
pIC50 ([2]; read-out: beta-Catenin FP IC50): 5.75
CHI Log D [3]: 1.903
